# Data: patent US4383113A, “Agricultural sulfonamides” (E. I. Du Pont de Nemours and Company, priority 1981, dated 1983)
# Tests used:
# Design in all cases: key: 0 = no effect, 10 = maximum effect; letter = response symbol
# bush bean = assay: Test A post-emergence; format: in vivo, bush beans; conditions: 0.4 kg/ha
# morningglory [1] = assay: Test A post-emergence; format: in vivo, Ipomoea spp.; conditions: 0.4 kg/ha
# Description: (§1) The activity of these compounds was discovered in a number of greenhouse and field tests. The ratings are based on a numerical scale extending from 0=no effect, to 10=maximum effect. The accompanying descriptive symbols have the following meanings:
# (§2) Seeds of crabgrass (Digitaria spp.), barnyardgrass (Echinochloa crusgalli), wild oats (Avena fatua), cassia (Cassia tora), morningglory (Ipomoea spp.), cocklebur (Xanthium spp.), sorghum, corn, soybean, rice, wheat and nutsedge tubers (Cyperus rotundus) were planted in a growth medium and treated preemergence with a nonphytotoxic solvent solution of the compounds of Table XII. Other batches of seeds and tubers for all of the foregoing weed and crop plants were planted at the same time as controls. The control plantings were untreated; i.e., neither any compound nor any solvent was applied. At the same time, cotton having five leaves (including cotyledonary ones), bush beans with the third trifoliate leaf expanding, crabgrass with two leaves, barnyardgrass with two leaves, wild oats with two leaves, cassia with three leaves (including cotyledonary ones), morningglory with four leaves (including the cotyledonary ones), cocklebur with four leaves (including the cotyledonary ones), sorghum with four leaves, corn with four leaves, soybean with two cotyledonary leaves, rice with three leaves, wheat with one leaf, and nutsedge with three-five leaves were sprayed with a nonphytotoxic solvent solution of the compounds of Table XII. Other groups of all the same weed and crop plants were sprayed with the same nonphytotoxic solvent so as to provide control plants. Preemergence and postemergence treated plants and controls were maintained in a greenhouse for sixteen days, then all treated plants were compared with their respective controls and rated visually for response to treatment.
# cocklebur [2] = assay: Test A post-emergence; format: in vivo, Xanthium spp.; conditions: 0.4 kg/ha
# Description: as §1, §2
# cassia [3] = assay: Test A post-emergence; format: in vivo, Cassia tora; conditions: 0.4 kg/ha
# Description: as §1, §2
# corn [4] = assay: Test A post-emergence; format: in vivo; conditions: 0.4 kg/ha
# Description: as §1, §2
# cotton = assay: Test A post-emergence; format: in vivo; conditions: 0.4 kg/ha
# Description: as §1, §2
# nutsedge = assay: Test A post-emergence; format: in vivo, Cyperus rotundus; conditions: 0.4 kg/ha
# Description: as §1, §2
# wild oats [5] = assay: Test A post-emergence; format: in vivo, Avena fatua; conditions: 0.4 kg/ha
# Description: as §1, §2
# morningglory [6] = assay: Test A pre-emergence; format: in vivo, Ipomoea spp.
# Description: as §1, §2
# cocklebur [7] = assay: Test A pre-emergence; format: in vivo, Xanthium spp.
# Description: as §1, §2
# cassia [8] = assay: Test A pre-emergence; format: in vivo, Cassia tora
# Description: as §1, §2
# crabgrass = assay: Test A pre-emergence; format: in vivo, Digitaria spp.
# Description: as §1, §2
# barnyardgrass = assay: Test A pre-emergence; format: in vivo, Echinochloa crusgalli
# Description: as §1, §2
# wild oats [9] = assay: Test A pre-emergence; format: in vivo, Avena fatua
# Description: as §1, §2
# corn [10] = assay: Test A pre-emergence; format: in vivo
# Description: as §1, §2
# sorghum = assay: Test A pre-emergence; format: in vivo
# Description: as §1, §2
# soybean = assay: Test A pre-emergence; format: in vivo
# Description: as §1, §2
# wheat = assay: Test A pre-emergence; format: in vivo
# Description: as §1, §2
SMILES,response rating (morningglory [6]; 0.4 kg/ha),response rating (cocklebur [7]; 0.4 kg/ha),response rating (cassia [8]; 0.4 kg/ha),response rating (barnyardgrass; 0.4 kg/ha),response rating (corn [10]; 0.4 kg/ha),response rating (sorghum; 0.4 kg/ha),response rating (soybean; 0.4 kg/ha),response rating (wheat; 0.4 kg/ha),further results
COc1nc(C)nc(NC(=O)NS(=O)(=O)c2ccccc2C(=O)OC2CCCCC2C)n1 (stereo not shown),–,–,–,–,–,–,–,–,response rating (bush bean): 9C; response rating (morningglory [1]): 10C; response rating (cocklebur [2]): 9C; response rating (cassia [3]): 9C; response rating (corn [4]): 10C; response rating (cotton): 9C
COC(=O)c1cc(Cl)ccc1S(=O)(=O)NC(=O)Nc1nc(OC)cc(OC)n1 [drawing 433],–,–,–,–,–,–,–,–,response rating (bush bean): 9C; response rating (morningglory [1]): 10C; response rating (cocklebur [2]): 10C; response rating (cassia [3]): 9C; response rating (nutsedge): 10C; response rating (wild oats [5]): 9G; response rating (corn [4]): 6H; response rating (cotton): 9C
COC(=O)c1ccccc1S(=O)(=O)NC(=O)Nc1nc(C)cc(OC)n1 [drawing 480],9G,9G,9G,9H,10H,9H,9H,9H,response rating (crabgrass; 0.4 kg/ha): 9H; response rating (wild oats [9]; 0.4 kg/ha): 9H
COC(=O)c1ccccc1S(=O)(=O)NC(=O)Nc1nc(OC)cc(OC)n1 [drawing 481],9G,9G,9G,9H,9H,9H,–,9H,response rating (crabgrass; 0.4 kg/ha): 9H; response rating (wild oats [9]; 0.4 kg/ha): 9H
COC(=O)c1ccccc1S(=O)(=O)NC(=O)Nc1nnc(C)c(C)n1 [drawing 484],–,–,–,–,–,–,–,–,response rating (morningglory [6]; 2 kg/ha): 9C; response rating (cocklebur [7]; 2 kg/ha): 9G; response rating (cassia [8]; 2 kg/ha): 9C; response rating (barnyardgrass; 2 kg/ha): 9H; response rating (wild oats [9]; 2 kg/ha): 9H; response rating (corn [10]; 2 kg/ha): 9G; response rating (sorghum; 2 kg/ha): 9H; response rating (soybean; 2 kg/ha): 9H; response rating (wheat; 2 kg/ha): 9H
COC(=O)c1ccccc1S(=O)(=O)NC(=O)Nc1ncccn1 [drawing 485],–,–,–,–,–,–,–,–,response rating (cocklebur [7]; 2 kg/ha): 9G; response rating (cassia [8]; 2 kg/ha): 9G; response rating (wild oats [9]; 2 kg/ha): 8G; response rating (corn [10]; 2 kg/ha): 9G; response rating (sorghum; 2 kg/ha): 9G; response rating (wheat; 2 kg/ha): 8G
COc1cc(C)nc(NC(=O)NS(=O)(=O)c2ccccc2C(=O)OCCCl)n1 [drawing 488],9C,9G,9C,10H,10H,10H,9H,9H,–
COc1nc(C)nc(NC(=O)NS(=O)(=O)c2ccccc2C(=O)OC(C)C)n1 [drawing 492],9G,9G,–,–,9G,–,9H,5G,response rating (wild oats [9]; 0.4 kg/ha): 9G
COC(=O)c1cc(Cl)ccc1S(=O)(=O)NC(=O)Nc1nc(OC)cc(OC)n1 [drawing 500],9G,9G,–,9H,9H,9H,9H,3G,response rating (crabgrass; 0.4 kg/ha): 5G; response rating (wild oats [9]; 0.4 kg/ha): 9G
CCCCOC(=O)c1ccccc1S(=O)(=O)NC(=O)Nc1nc(OC)cc(OC)n1 [drawing 506],9G,9G,9G,9H,–,–,7H,9G,response rating (cocklebur [7]; 2 kg/ha): 9G; response rating (cassia [8]; 2 kg/ha): 9C; response rating (crabgrass; 0.4 kg/ha): 8G; response rating (crabgrass; 2 kg/ha): 7G; response rating (barnyardgrass; 2 kg/ha): 9H; response rating (wild oats [9]; 0.4 kg/ha): 7G; response rating (wild oats [9]; 2 kg/ha): 8G; response rating (corn [10]; 2 kg/ha): 9G; response rating (sorghum; 2 kg/ha): 9H; response rating (soybean; 2 kg/ha): 9H; response rating (wheat; 2 kg/ha): 9G
CCCCOC(=O)c1ccccc1S(=O)(=O)NC(=O)Nc1nc(C)cc(OC)n1 [drawing 507],9G,9G,9G,9H,9G,9H,9H,9H,response rating (cocklebur [7]; 2 kg/ha): 9G; response rating (crabgrass; 0.4 kg/ha): 7G; response rating (barnyardgrass; 2 kg/ha): 9H; response rating (corn [10]; 2 kg/ha): 9G; response rating (sorghum; 2 kg/ha): 9H; response rating (soybean; 2 kg/ha): 9H; response rating (wheat; 2 kg/ha): 9H
COc1nc(C)nc(NC(=O)NS(=O)(=O)c2ccccc2C(=O)OC(C)Cc2ccccc2)n1 (stereo not shown) [drawing 524],9G,9G,–,9H,9H,9H,9H,9H,response rating (wild oats [9]; 0.4 kg/ha): 9H
COc1cc(C)nc(NC(=O)NS(=O)(=O)c2ccccc2C(=O)NC(C)C)n1 [drawing 530],9G,8G,9G,9H,9H,9H,9H,9H,response rating (crabgrass; 0.4 kg/ha): 9H
COc1cc(C)nc(NC(=O)NS(=O)(=O)c2ccccc2C(=O)N(C)C)n1 [drawing 532],9G,9G,9G,9H,9H,9H,9H,9H,–
COC(=O)c1ccccc1S(=O)(=O)NC(=O)Nc1nc(OC)cc(OC(C)C(=O)OC)n1 (stereo not shown) [drawing 535],–,–,–,–,10H,10H,9H,–,–
CCOCCSc1cc(C)nc(NC(=O)NS(=O)(=O)c2ccccc2C(=O)OC)n1 [drawing 536],9G,–,–,–,9G,9H,9H,–,–
COCCCOc1cc(C)nc(NC(=O)NS(=O)(=O)c2ccccc2C(=O)OC)n1 [drawing 537],–,9G,8G,–,9H,9H,9H,9H,–
COC(=O)c1ccccc1S(=O)(=O)NC(=O)Nc1nc(C)nc(N(C)C)n1 [drawing 539],9G,9G,8G,–,9G,9H,9H,9H,–
COCCc1nc(NC(=O)NS(=O)(=O)c2ccccc2C(=O)OC)nc(OC)n1 [drawing 541],9G,9G,–,–,10H,9H,9H,6G,–
COc1cc(C)nc(NC(=O)NS(=O)(=O)c2ccccc2C(=O)SCc2ccccc2)n1 [drawing 542],9G,8G,9G,–,9G,9H,9H,9H,–
COc1cc(C)nc(NC(=O)NS(=O)(=O)c2ccccc2C(=O)SC2CCCCC2)n1 [drawing 543],9H,9G,9G,9H,9G,9H,9H,9H,–
